Reference: US11331335B2, “Sepsis treatment and related compositions methods and systems” (CALIFORNIA INSTITUTE OF TECHNOLOGY, priority 2015, dated 2022)

Legend:
[1] = test system: endotoxin shock in TLR2−/− mice; assay: Endotoxin induced sepsis in TLR2-/- mice; type: in vivo, mouse
Experimental: (§1) FIG. 6 Panels C and A show detection of TNF-a in TLR2^−/− or IL-10^−/− mice treated intravenously treated i.v. with PBS or PSA directly following induction of endotoxin shock by intraperitoneal administration of high doses of LPS (500 ug).
(§2) Therefore, to determine whether PSA protection from endotoxin induced sepsis also required these pathways the following experiments were performed.

[2] = test system: LPS sepsis in RAG−/− recipients of B1 or MZ B cells; assay: Endotoxin induced sepsis in RAG-/- recipients of sort purified B1 or MZ B cells, treated with PSA; type: in vivo, mouse
Experimental: Multiple subsets of B cells exist within the spleen including B1, follicular, and MZ B cell populations. […] Both B1 and MZ B cells can secrete IgM in a T cell independent manner, therefore experiments were performed to determine whether either of these subsets conferred protection from sepsis by PSA. B1 cells and MZ B cells were sort purified and transferred into RAG^−/− animals. Animals were subsequently treated with PSA and induced for disease.
In particular in a first set of experiments, marginal zone B cells (CD19+B220+IgM^hiCD21^hiCD23) were sort purified and transferred into RAG^−/− recipients. Twenty-four hours later these animals were given high dose LPS and serum collected at 1 and 4 hours to assay for TNF-α (FIG. 4 Panel A) and survival was monitored (FIG. 4 Panel B).

[3] = test system: endotoxin shock in IL-10−/− mice; assay: Endotoxin induced sepsis in IL-10-/- mice; type: in vivo, mouse
Experimental: as §1, §2

[4] = test system: LPS sepsis in RAG−/− mice; assay: Endotoxin induced sepsis in RAG-/- mice with or without transfer of T cells, CD4 depleted splenocytes or CD19+ B cells; type: in vivo, mouse
Experimental: In particular, the requirement for T and B cells during PSA mediated protection from sepsis was tested.
In a first set of experiments, RAG^−/− animals were treated i.v. with either PBS or PSA 24 hours prior to receiving high dose LPS i.p. Serum was collected from animals at 1 and 4 hours, TNF-α and IL-6 were measured by ELISA (FIG. 3 Panel A) and survival monitored (FIG. 3 Panel B). Two experiments were combined. *p<0.05 **p<0.005 using a logrank and Gehan-Wilcoxon test.
In a second set of experiments, RAG^−/− recipients received either CD4+CD3+ (square) or total T cells (CD3+) (triangle) or CD4 depleted splenocytes (includes CD8+ T cells and CD19+ B cells) (sphere). Twenty-four hours later animals were given LPS. Serum was collected 1 and 4 hours post-LPS to measure cytokines (FIG. 3 Panel C) and survival was monitored (FIG. 3 Panel D).
In a third set of experiments sort purified CD19+ total B cells were purified from the spleen of donor animals and transferred into RAG^−/− recipients and inflammatory cytokines were monitored at 1 and 4 hours (FIG. 3 Panel E) as well as survival (FIG. 3 Panel F). * p<0.05 **p<0.005 by a student's t test for all ELISA data and *p<0.05 **p<0.005 using a logrank and Gehan-Wilcoxon test for survival data. ELISA data is representative from one experiment repeated twice with an n of 4 in each group. Survival data combines multiple experiments.

[5] = test system: endotoxin induced sepsis, Balb/c animals; assay: Endotoxin induced sepsis, PSA administered i.v. after LPS; type: in vivo, mouse
Experimental: To mimic a clinically significant treatment situation, PSA was administered after inducing endotoxin induced sepsis. Balb/c animals were treated with high doses of LPS (500 ug) i.p. and subsequently treated i.v. with PBS, PSA or PSA was administered 30 minutes post-LPS (see FIG. 2).
Since this is an acute model, where overt inflammation occurs within one hour after induction two timepoints for PSA treatment were tested. In particular, serum was collected 1 and 4 hours post-LPS injection and cytokines TNF-α (FIG. 2 Panel A) and IL-6 (FIG. 2 Panel B) were detected by ELISA.
Each experiment consisted of at least 4 animals in each groups and was repeated twice. * p<0.05 **p<0.005 as measured by a students t test One group received i.v. administration of PSA directly after LPS injection (PSA same) while the second group received PSA thirty minutes post-LPS injection (PSA-post) (FIG. 2).

TNBS colitis = assay: TNBS colitis, systemic (spleen) inflammation after PSA; type: in vivo, mouse
Experimental: Three models of intestinal inflammation were used: 1) CD4^+CD45Rb^high T cells were purified from the spleens of wild-type or IL-10^−/− donor mice by flow cytometry and transferred into Rag (C57Bl/6) recipients as described. 2) TNBS colitis was induced by pre-sensitization of wild-type (C57Bl/6) mice on the skin with a TNBS/acetone mix. Seven days after sensitization, 2.5% TNBS in ethanol was administered rectally; mice were sacrificed 3-6 days later.
Cytokines from the spleen, colons, or mesenteric lymphonodes (MLNs) were assayed by ELISA, Q-PCR, or flow cytometry. Colitis was assessed with tissue sections (fixed, paraffin embedded, sectioned onto a slide, and stained with hematoxylin and eosin) and was scored by a blinded pathologist (Dr. R. T. Bronson, Harvard Medical School) according to a standard scoring system: 0, no thickening of colonic tissues and no inflammation (infiltration of lymphocytes); 1, mild thickening of tissues but no inflammation; 2, mild thickening of tissues and mild inflammation; 3, severe thickening and severe inflammation. BMDCs were purified from femurs of mice after extraction and washing in PBS. Cells were cultured for 8 days in C-RPMI-10 in the presence of GM-CSF (20 ng/mL; Biosource, Camarillo, Calif.). CD4^+ T cells were purified by negative selection over a magnetic column (Miltenyi or R& D Systems).
The backs of wild-type (C57BL/6) male mice were shaved, and pre-sensitization solution (150 μL; acetone with olive oil in a 4:1 ratio mixed with 5% TNBS in a 4:1 ratio) was slowly applied. […] Mice were analyzed 4-6 days after TNBS administration.
Animals were orally gavaged with vehicle or PSA twenty-four hours prior to being induced with colitis. Five days post-induction CD4+ T cells were isolated from the spleens of indicated animals and analyzed for the inflammatory cytokines TNF-α, IL-17a and IL-6 to determine how systemic inflammation is influenced during intestinal disease.

marginal zone B cells = assay: Transfer of MZ B cells from PSA treated donors into RAG-/- recipients, then LPS induced sepsis; type: in vivo, mouse
Experimental: To further validate this conclusion, experiments were performed to determine whether the function of PSA on MZ B cells could be transplanted into mice that have never been treated with PSA. WT animals were treated i.v. with two doses of PSA and splenic MZ B cells were isolated and subsequently transferred into a RAG^−/− recipients. LPS induced sepsis was then induced in the MZ B cell recipients without any treatment with PSA.
In particular a second set of experiments, WT C57Bl/6 animals were treated i.v. with either PBS or PSA (100 ug) every other day for a total of three days (FIG. 4 Panels C and D). MZ B cells were subsequently sort purified as in the first set of experiments and 8×10^5 MZ B cells were transferred into RAG^−/− recipients. Twenty-four hours later animals received high dose LPS (500 ug). Serum was collected at indicated time points to analyze TNF-α (FIG. 4 Panel E) and survival monitored (FIG. 4 Panel F). * p<0.05 **p<0.005 by a student's t test for all ELISA data and *p<0.05 **p<0.005 using a logrank and Gehan-Wilcoxon test for survival data.
Marginal zone B cells secrete copious amounts of polyreactive IgM. […] Based on this, serum was isolated from RAG^−/− animals that received a MZ B transplant from PSA treated mice and quantitated IgM serum levels.

[6] = test system: cecal-ligation puncture (CLP) model; assay: Cecal-ligation puncture (CLP) model of sepsis; type: in vivo, mouse; details: PSA vs PBS mock treated (about fifty percent succumbed)
Text: To validate a role for PSA during protection from sepsis, a second, well-established mouse model of sepsis called the cecal-ligation puncture (CLP) model was used. CLP induces colonic spillage of bacteria into the peritoneal cavity, which then enter the bloodstream. Although there are limitations, this model is thought to best mimic a primary cause of human sepsis (polymicrobial infection from the gut).

TNF-α or IL-6 production = assay: Cytokine induction by PSA administered i.v. alone; details: data not shown
[7] = test system: endotoxin (lipopolysaccharide; LPS) induced sepsis, Balb/c animals; assay: Endotoxic shock model (high dose LPS), PSA given orally or intravenously before induction; type: in vivo, mouse
Experimental: In this model, animals are treated intravenously with high doses of endotoxin (lipopolysaccharide; LPS). Administration of LPS leads to the production of massive amounts of inflammatory cytokines such as tumor necrosis factor α (TNF-α) and IL-6 and animals rapidly succumb to death. This model closely resembles the cytokine storm seen in patients suffering from septic shock.
Five days post-induction CD4+ T cells were isolated from the spleens of the indicated animals. Equal amounts of RNA were used to perform q-RT-PCR on IL6 or TNFa cytokines at 1 and 4 hours post-LPS. (FIG. 1 panel A diagram on the left, and FIG. 1 panel B diagram on the left)
In another set of experiments, Balb/c animals were treated intravenously with PSA 24 hours prior to be induced with TNBS colitis. Five days post-induction CD4+ T cells were isolated from the spleens of the indicated animals. Equal amounts of RNA were used to perform q-RT-PCR on IL6 or TNFa cytokines at 1 and 4 hours post-LPS. (FIG. 1 panel A diagram on the right, and FIG. 1 panel B diagram on the right)
Detection of percent survival of in animals treated intravenously with high doses of endotoxin (lipopolysaccharide; LPS) was performed. Accordingly, Balb/C animals were orally or intravenously treated with PSA or PBS as described in Example 2 and the number of surviving mice counted.

[8] = test system: LPS sepsis in RAG−/− recipients of sIgM−/− B cells; assay: Endotoxin induced sepsis in RAG-/- recipients of B cells from sIgM-/- mice; type: in vivo, mouse
Text: To test whether IgM is the mechanism by which PSA is able to protect from endotoxin induced sepsis total B cells were isolated from the spleen of animals that are unable to make secreted IgM (sIgM^−/−) and transferred these cells into RAG^−/− recipients according to procedure of Example 7.

[9] = PSA i.v. following LPS 500 ug i.p.
[10] = RAG−/− mice reconstituted with CD19+ total B cells, i.v. PSA vs PBS
[11] = PSA i.v. thirty minutes post-LPS (PSA post)

Substance: polysaccharide A [PSA]
- TNFα and IL-6 levels during septic shock ([1]; PSA i.v.): suppressed
- survival [1, 9]: completely protected from death
- PSA mediated protection ([2]; RAG−/− recipients of B1b cells, data not shown): did not restore PSA mediated protection
- survival ([2]; RAG−/− recipients of purified MZ B cells, PSA treated): protect animals from sepsis induced death
- serum levels of TNF-α ([2]; RAG−/− recipients of purified MZ B cells, PSA treated, 1 and 4 hours after high dose LPS): suppression of serum levels of TNF-α
- TNFα and IL-6 levels during septic shock ([3]; PSA i.v.): suppressed
- survival [3, 9]: completely protected from death
- protection from sepsis (serum TNF-α, survival) ([4]; RAG−/− animals (no T and B cells), PSA i.v. 24 hours prior to high dose LPS i.p.): no longer protected animals from sepsis
- serum levels of TNFα [4, 10]: significantly reduced
- survival [4, 10]: survived
- PSA mediated protection from death ([4]; RAG−/− recipients of CD3+ total T cells): unable to restore PSA mediated protection from death
- prevention of death and suppression of systemic inflammation ([4]; RAG−/− recipients of CD4+ T cell depleted splenocytes): restored the ability of PSA to prevent death and suppress systemic inflammation
- PSA mediated protection from death ([4]; RAG−/− recipients of CD4+ sort purified T cells): unable to restore PSA mediated protection from death
- serum TNF-α and IL-6 levels ([5]; PSA i.v. directly following LPS 500 ug i.p. (PSA same), 1 and 4 hours post-LPS): reduced levels
- survival ([5]; PSA i.v. directly following LPS (PSA same)): high survival rate
- serum TNF-α [5, 11]: lower serum levels
- survival [5, 11]: higher survival rate
- inflammatory cytokine expression (TNF-α, IL-17a, IL-6) in splenic CD4+ T cells (TNBS colitis; PSA orally gavaged 24 h prior to colitis induction, five days post-induction, vs colitogenic animals): reduced cytokine expression
- whether PSA influences inflammation within the systemic compartment (colon disease score, survival; FIG. 5 C, D) (TNBS colitis; intravenous PSA 24 h prior to TNBS colitis): supported this conclusion
- splenomegaly in colitic animals (TNBS colitis; orally gavaged PSA): able to prevent
- protection from endotoxin induced sepsis (serum TNF-α, mortality) (marginal zone B cells; RAG−/− recipients of 8×10^5 MZ B cells from donors treated i.v. with PSA (100 ug), recipients not treated with PSA, LPS 500 ug): completely protected from endotoxin induced sepsis
- IgM serum levels during LPS induced sepsis (marginal zone B cells; RAG−/− recipients of MZ B cells from PSA treated animals vs from mock treated mice): high levels of circulating IgM
- survival [6]: significantly increased survival rate
- overt inflammation on i.v. administration (TNF-α or IL-6 production; PSA i.v. into animals): does not elicit overt inflammation
- TNF-α or IL-6 production induced by PSA on its own (TNF-α or IL-6 production; PSA i.v., no LPS): does not on its own induce
- serum inflammatory cytokines (TNF-α, IL-6) ([7]; PSA provided directly within the blood (intravenous), 1 and 4 hours post-LPS, vs mock treated): significantly blocked induction of serum inflammatory cytokines
- serum TNF-α ([7]; animals fed PSA (oral gavage), vs mock treated): slightly elevated
- survival ([7]; intravenous administration of PSA): potently protected animals from death
- protection from sepsis (serum inflammatory cytokines, death) ([8]; PSA i.v. treated animals vs PBS treated): protected
- protection from sepsis (serum inflammatory cytokines, death) ([8]; RAG−/− animals that received MZ B cells from sIgM−/− mice, PSA i.v.): no longer protected by administration of PSA
